Laboratory results published in the supplement of paper PMC10307832.

How the values were obtained:
Assay in all cases: relative viability (nuclei count vs DMSO), 5 days (fraction); higher = more cells survive
RU-SKI 43 + Bortezomib = compound: CC[C@@H](C)CNCC(=O)N1CCC2=C([C@@H]1COC3=CC=CC(=C3)C)C=CS2 [RU-SKI 43] + CC(C)C[C@H](NC(=O)[C@H](Cc1ccccc1)NC(=O)c1cnccn1)B(O)O [Bortezomib] (partner 0.002 µM)
Method in brief: (§1)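 Dosing by pin tool came one day after lung cancer cell lines were seeded in 1536-well plates, using either one drug or a fixed anchor-drug dose plus five library-drug doses (not always all listed) in √10 steps. After 5 days, nuclei were counted on 4× images. Relative viability is treated-well nuclei count divided by vehicle-well nuclei count, and values are medians of duplicate plates.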

RU-SKI 43 + Palbociclib = compound: CC[C@@H](C)CNCC(=O)N1CCC2=C([C@@H]1COC3=CC=CC(=C3)C)C=CS2 [RU-SKI 43] + CC(=O)c1c(C)c2cnc(Nc3ccc(N4CCNCC4)cn3)nc2n(C2CCCC2)c1=O [Palbociclib] (partner 0.5 µM)
Method in brief: as §1

Irinotecan + Linsitinib = compound: CCc1c2c(nc3ccc(OC(=O)N4CCC(N5CCCCC5)CC4)cc13)-c1cc3c(c(=O)n1C2)COC(=O)[C@]3(O)CC [Irinotecan] + C[C@]1(O)C[C@@H](c2nc(-c3ccc4ccc(-c5ccccc5)nc4c3)c3c(N)nccn32)C1 [Linsitinib] (partner 1 µM)
Method in brief: as §1

MK-8033 + OSI-027 = compound: Cn1cc(-c2cnc3ccc4ccc(CS(=O)(=O)NCc5ccccn5)cc4c(=O)c3c2)cn1 [MK-8033] + COc1cccc2cc(-c3nc([C@H]4CC[C@H](C(=O)O)CC4)n4ncnc(N)c34)[nH]c12 [OSI-027] (partner 0.5 µM)
Method in brief: as §1

Cell Line | relative viability (RU-SKI 43 + Bortezomib; first compound 0.1 µM) | relative viability (RU-SKI 43 + Bortezomib; first compound 0.3162 µM) | relative viability (RU-SKI 43 + Bortezomib; first compound 1 µM) | relative viability (RU-SKI 43 + Bortezomib; first compound 3.162 µM) | relative viability (RU-SKI 43 + Bortezomib; first compound 10 µM) | relative viability (RU-SKI 43 + Palbociclib; first compound 0.1 µM) | relative viability (RU-SKI 43 + Palbociclib; first compound 0.3162 µM) | relative viability (RU-SKI 43 + Palbociclib; first compound 1 µM) | relative viability (RU-SKI 43 + Palbociclib; first compound 3.162 µM) | relative viability (RU-SKI 43 + Palbociclib; first compound 10 µM) | relative viability (Irinotecan + Linsitinib; first compound 0.6325 µM) | relative viability (Irinotecan + Linsitinib; first compound 2 µM) | relative viability (Irinotecan + Linsitinib; first compound 6.325 µM) | relative viability (Irinotecan + Linsitinib; first compound 20 µM) | relative viability (MK-8033 + OSI-027; first compound 0.02 µM) | relative viability (MK-8033 + OSI-027; first compound 0.06325 µM) | relative viability (MK-8033 + OSI-027; first compound 0.2 µM) | relative viability (MK-8033 + OSI-027; first compound 0.6325 µM) | relative viability (MK-8033 + OSI-027; first compound 2 µM)
LCLC-103H | 0.969 | 1.09 | 1.31 | 1.1 | 0.985 | 0.525 | 0.453 | 0.471 | 0.495 | 0.496 | 0.91 | 0.352 | 0.362 | 0.411 | 0.412 | 0.469 | 0.437 | 0.448 | 0.509
LOU-NH91 | 0.53 | 0.485 | 0.519 | 0.502 | 0.497 | 0.523 | 0.515 | 0.552 | 0.496 | 0.518 | 0.834 | 0.706 | 0.431 | 0.309 | 0.74 | 0.453 | 0.7 | 0.667 | 0.752
LU99A | 1.08 | 1.3 | 1.15 | 1.23 | 1.03 | 0.376 | 0.442 | 0.53 | 0.399 | 0.387 | 0.233 | 0.247 | 0.224 | 0.238 | 0.315 | 0.251 | 0.299 | 0.298 | 0.307
LXF-289 | 1.06 | 0.977 | 1.03 | 1.06 | 0.974 | 0.605 | 0.666 | 0.615 | 0.61 | 0.607 | 0.951 | 0.414 | 0.2 | 0.186 | 0.809 | 0.668 | 0.667 | 0.83 | 0.806
NCI-H23 | 0.968 | 1.16 | 0.958 | 1.36 | 0.899 | 0.464 | 0.515 | 0.548 | 0.568 | 0.47 | 0.607 | 0.339 | 0.248 | 0.281 | 0.496 | 0.525 | 0.553 | 0.605 | 0.538
NCI-H322M | 1.2 | 1.3 | 1.3 | 1.24 | 1.28 | 0.459 | 0.483 | 0.44 | 0.524 | 0.457 | 0.551 | 0.467 | 0.366 | 0.414 | 0.568 | 0.442 | 0.598 | 0.604 | 0.524
NCI-H441 | 0.649 | 0.243 | 0.657 | 0.562 | 0.393 | 0.192 | 0.278 | 0.205 | 0.229 | 0.146 | 0.547 | 0.339 | 0.241 | 0.341 | 0.653 | 0.597 | 0.698 | 0.788 | 0.469
NCI-H460 | 1.23 | 1.8 | 1.53 | 1.25 | 1.03 | 0.222 | 0.165 | 0.183 | 0.199 | 0.128 | 0.455 | 0.376 | 0.0862 | 0.0869 | 0.643 | 0.627 | 0.547 | 0.686 | 0.472
NCI-H520 | 0.572 | 0.798 | 0.721 | 0.667 | 0.597 | 0.247 | 0.241 | 0.259 | 0.237 | 0.148 | 0.821 | 0.737 | 0.302 | 0.212 | 0.256 | 0.287 | 0.302 | 0.25 | 0.222
NCI-H647 | 0.956 | 0.841 | 1.08 | 1.25 | 1.14 | 0.472 | 0.371 | 0.382 | 0.471 | 0.287 | 1.03 | 0.329 | 0.178 | 0.15 | 0.69 | 0.723 | 0.534 | 0.46 | 0.582
NCI-H650 | 1.02 | 0.779 | 1.1 | – | 0.891 | 0.344 | 0.312 | – | 0.338 | 0.337 | 0.701 | 0.562 | 0.237 | 0.303 | 0.539 | 0.527 | 0.491 | 0.503 | 0.554
NCI-H661 | 0.776 | 0.704 | 0.835 | 0.943 | 0.764 | 0.384 | 0.398 | 0.401 | 0.348 | 0.344 | 0.583 | 0.476 | 0.334 | 0.256 | 0.727 | 0.656 | 0.687 | 0.699 | 0.668
NCI-H727 | 1 | 1.14 | 0.834 | 0.839 | 0.802 | – | 0.559 | 0.682 | 0.671 | 0.622 | 0.157 | 0.334 | 0.284 | 0.391 | 0.667 | – | 0.652 | 0.583 | 0.551
NCI-H838 | 0.718 | 0.955 | 0.912 | 0.748 | 0.992 | 0.213 | 0.233 | 0.225 | 0.239 | 0.188 | 1.17 | 0.849 | 0.372 | 0.228 | 0.374 | 0.368 | 0.361 | 0.407 | 0.412
NCI-H1355 | 1.21 | 1.29 | 1.18 | 1.21 | 1.2 | 0.405 | 0.381 | 0.358 | 0.42 | 0.389 | 0.671 | 0.403 | 0.2 | 0.201 | 0.366 | 0.296 | 0.404 | 0.423 | 0.411
NCI-H1437 | 0.581 | 0.594 | 0.637 | 0.629 | 0.526 | 0.32 | 0.294 | 0.348 | 0.31 | 0.246 | 0.61 | 0.593 | 0.28 | 0.142 | 1.03 | 0.849 | 0.808 | 0.839 | 0.83
NCI-H1651 | 0.93 | 1.1 | 1.01 | 0.931 | 0.947 | 0.522 | 0.533 | 0.532 | 0.537 | 0.542 | 0.803 | 0.542 | 0.203 | 0.159 | 0.735 | 0.541 | 0.757 | 0.646 | 0.699
